In patent US11083716B2 (Achieve Life Sciences, Inc., priority 2019, dated 2021):
Read-outs that look alike come from different tables or passages of the source.

Experiments:
[1] = test system: adults smoking 10+ cigarettes daily
Procedure: This was a six-arm, multi-center, double-blind, randomized, placebo-controlled study conducted in male or female adults years of age, smoking 10+ cigarettes daily, and willing to set a quit date that is 5-7 days after randomization. […] The study also evaluated the effectiveness of a simplified TID dosing schedule for 1.5 mg and an increased dose of 3.0 mg (using both the commercial titration (COM) and simplified TID dosing schedules).
Study treatment started the day after randomization such that study treatment was initiated prior to the quit date, as shown in FIG. 3.
The primary efficacy endpoint for this study was the percent reduction in the number of cigarettes smoked during treatment, which was calculated as follows:
[formula] where N=total number of cigarettes smoked, B=number of cigarettes smoked at baseline and D=number of days.
The primary outcome (Cigarette Score) and the main secondary abstinence outcomes were subjected to sensitivity analyses. The main secondary abstinence outcomes were the initial quit rate at Week 4 and continued 4-week abstinence through Week 5 to Week 8, confirmed by expired CO of <10 ppm designated as Cess/W5-8/CO Success.
The primary outcome was based on the number of cigarettes smoked on each day from a diary. The Cigarette Score used the diary data for the planned 25 days while on study treatment. Presented are sensitivity analyses for the comparison of the 3.0 mg TID arm and the pooled placebo arm related to variations on the primary analysis of Cigarette Score. The alternative definition of the Cigarette Score featured cigarettes recorded in the diary after the planned quit period of Days 5-7, that is, from Day 8 onward, instead of from Day 1 onward.
Another alterative analysis was based on re-analyses of the primary Cigarette Score and the above alternative Cigarette Score, with a weight related to the standard error of the mean number of cigarettes estimated from the diary entries. The weight used for each subject was 1/(SE)^2, where SE is the standard error of the mean estimate, and this type of weighting, referred to as inverse variance weighting, is used commonly. This weighting gives greater weight to means that are estimated with a smaller SE. A small modification to this definition of weight was necessary, however. In computing 1/(SE)^2, a specific rule was used when SE=0, specifically when all diary entry values were equal. In these cases, the SE was computed as if one and only one of the recorded values was larger by one. It can be shown that when this modification to the data is made SE=1/N, where N is the number of the subjects daily (days) entries.

[2] = biological target: alpha4, beta2 (α4β2) receptors (Homo sapiens, UniProt P17787+P43681); settings: cited from earlier work
[3] = test system: smokers; settings: cited from earlier work
[4] = test system: smokers; settings: cited from earlier work; remark: listed apart in the source
[5] = Cochrane (n > 7000); cited from earlier work
[6] = 1.5 mg Downward Titration (n = 51)
[7] = 3.0 mg Downward Titration (n = 50)
[8] = end of treatment, 12 weeks (EAGLES)
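For TEAE: Abnormal dreams, subjects n (%) in this document: multicenter double-blind randomized placebo-controlled trial in adult smokers of 10 or more cigarettes per day, counting subjects with treatment-emergent adverse events per arm.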
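For TEAE: At least 1 AE, subjects n (%) in this document: multicenter double-blind randomized placebo-controlled trial in adult smokers of 10 or more cigarettes per day, counting subjects with treatment-emergent adverse events per arm.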
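For TEAE: Fatigue, subjects n (%) in this document: multicenter double-blind randomized placebo-controlled trial in adult smokers of 10 or more cigarettes per day, counting subjects with treatment-emergent adverse events per arm.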
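For TEAE: Headache, subjects n (%) in this document: multicenter double-blind randomized placebo-controlled trial in adult smokers of 10 or more cigarettes per day, counting subjects with treatment-emergent adverse events per arm.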

alpha4, beta2 (α4β2) receptors, sequence (P43681 29-627 limits assumed): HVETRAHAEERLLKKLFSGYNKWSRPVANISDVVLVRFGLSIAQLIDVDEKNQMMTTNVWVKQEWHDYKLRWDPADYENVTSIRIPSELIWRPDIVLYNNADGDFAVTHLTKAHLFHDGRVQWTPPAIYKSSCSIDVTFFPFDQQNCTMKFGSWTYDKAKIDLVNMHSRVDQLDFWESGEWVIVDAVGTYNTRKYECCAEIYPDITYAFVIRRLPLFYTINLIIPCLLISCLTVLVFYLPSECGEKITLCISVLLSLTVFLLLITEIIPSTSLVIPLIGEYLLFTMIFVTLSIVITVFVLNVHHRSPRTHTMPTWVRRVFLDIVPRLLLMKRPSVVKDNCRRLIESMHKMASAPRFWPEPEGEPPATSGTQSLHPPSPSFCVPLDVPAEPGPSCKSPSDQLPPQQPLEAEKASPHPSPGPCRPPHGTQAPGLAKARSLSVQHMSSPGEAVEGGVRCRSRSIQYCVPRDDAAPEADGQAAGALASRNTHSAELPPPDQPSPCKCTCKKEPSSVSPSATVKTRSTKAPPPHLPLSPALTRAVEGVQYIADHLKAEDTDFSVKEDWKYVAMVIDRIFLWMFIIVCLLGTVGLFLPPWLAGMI
alpha4, beta2 (α4β2) receptors, sequence (P17787 26-502): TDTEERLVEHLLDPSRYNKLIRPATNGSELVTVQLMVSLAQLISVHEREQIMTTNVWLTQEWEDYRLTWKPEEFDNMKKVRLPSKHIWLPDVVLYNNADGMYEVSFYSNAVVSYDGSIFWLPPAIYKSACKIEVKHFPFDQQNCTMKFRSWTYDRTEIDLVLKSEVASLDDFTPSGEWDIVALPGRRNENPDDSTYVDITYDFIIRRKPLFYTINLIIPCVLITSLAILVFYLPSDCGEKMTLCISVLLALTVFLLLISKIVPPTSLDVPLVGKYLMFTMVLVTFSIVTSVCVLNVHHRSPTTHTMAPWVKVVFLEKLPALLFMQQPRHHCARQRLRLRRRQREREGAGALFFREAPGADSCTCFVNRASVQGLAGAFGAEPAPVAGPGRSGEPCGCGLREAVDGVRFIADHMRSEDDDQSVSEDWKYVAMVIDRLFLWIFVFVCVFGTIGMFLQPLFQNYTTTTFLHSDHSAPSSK

O=c1cccc2n1C[C@@H]1CNC[C@H]2C1 [cytisine, (−)-Cytisine]
Reduction in CO (expired) ([1]; 1.5 mg TID): 71% | Reduction in CO (expired) ([1]; 1.5 mg, titration (COM) schedule): 78% | Reduction in CO (expired) ([1]; 3.0 mg TID): 80% | OR, quit rate versus placebo ([1]; 3.0 mg TID, 4 weeks off treatment, Table 11): 5.0 | OR, quit rate versus placebo ([1]; 3.0 mg TID, end of treatment (4 weeks), Tables 9-10): 6.3 | Reduction in CO (expired) ([1]; 3.0 mg, titration (COM) schedule): 71% | serum cotinine levels ([1]; all cytisine-treated arms, Week 4): material reduction | Cigarette Score effect estimate (95% confidence interval), 3.0 mg TID versus pooled placebo ([1]; weighted analysis, diary from start of intervention): −11.8 (−24.4, 0.9) | TEAE: Abnormal dreams, subjects n (%) [6]: 4 (8%) | TEAE: At least 1 AE, subjects n (%) [6]: 29 (57%) | TEAE: Fatigue, subjects n (%) [6]: 1 (2%) | TEAE: Headache, subjects n (%) [6]: 1 (2%) | TEAE: Insomnia, subjects n (%) [6]: 3 (6%) | TEAE: Nausea, subjects n (%) [6]: 5 (10%) | TEAE: URTI, subjects n (%) [6]: 3 (6%) | TEAE: Abnormal dreams, subjects n (%) (1.5 mg TID (n = 52)): 4 (8%) | TEAE: At least 1 AE, subjects n (%) (1.5 mg TID (n = 52)): 20 (39%) | TEAE: Constipation, subjects n (%) (1.5 mg TID (n = 52)): 1 (2%) | TEAE: Fatigue, subjects n (%) (1.5 mg TID (n = 52)): 3 (6%) | TEAE: Headache, subjects n (%) (1.5 mg TID (n = 52)): 6 (12%) | TEAE: Insomnia, subjects n (%) (1.5 mg TID (n = 52)): 4 (8%) | TEAE: Nausea, subjects n (%) (1.5 mg TID (n = 52)): 1 (2%) | TEAE: URTI, subjects n (%) (1.5 mg TID (n = 52)): 5 (10%) | overall safety following dosing (1.5 mg or 3.0 mg treatment arms on both schedules): no safety concerns | TEAE: Abnormal dreams, subjects n (%) [7]: 7 (14%) | TEAE: At least 1 AE, subjects n (%) [7]: 23 (46%) | TEAE: Fatigue, subjects n (%) [7]: 2 (4%) | TEAE: Headache, subjects n (%) [7]: 1 (2%) | TEAE: Insomnia, subjects n (%) [7]: 4 (8%) | TEAE: Nausea, subjects n (%) [7]: 3 (6%) | TEAE: URTI, subjects n (%) [7]: 2 (4%) | TEAE: Abnormal dreams, subjects n (%) (3.0 mg TID (n = 50)): 3 (6%) | TEAE: At least 1 AE, subjects n (%) (3.0 mg TID (n = 50)): 21 (42%) | TEAE: Constipation, subjects n (%) (3.0 mg TID (n = 50)): 3 (6%) | TEAE: Fatigue, subjects n (%) (3.0 mg TID (n = 50)): 1 (2%) | TEAE: Headache, subjects n (%) (3.0 mg TID (n = 50)): 2 (4%) | TEAE: Insomnia, subjects n (%) (3.0 mg TID (n = 50)): 3 (6%) | TEAE: Nausea, subjects n (%) (3.0 mg TID (n = 50)): 3 (6%) | TEAE: URTI, subjects n (%) (3.0 mg TID (n = 50)): 3 (6%) | Serious AEs (ORCA-1, pooled Cytisinicline (n = 203)): 0 | TEAE: Abnormal dreams, subjects n (%) (Pooled Cytisinicline (n = 203)): 18 (9%) | TEAE: At least 1 AE, subjects n (%) (Pooled Cytisinicline (n = 203)): 93 (46%) | TEAE: Constipation, subjects n (%) (Pooled Cytisinicline (n = 203)): 4 (2%) | TEAE: Fatigue, subjects n (%) (Pooled Cytisinicline (n = 203)): 7 (3%) | TEAE: Headache, subjects n (%) (Pooled Cytisinicline (n = 203)): 10 (5%) | TEAE: Insomnia, subjects n (%) (Pooled Cytisinicline (n = 203)): 14 (7%) | TEAE: Nausea, subjects n (%) (Pooled Cytisinicline (n = 203)): 12 (6%) | TEAE: URTI, subjects n (%) (Pooled Cytisinicline (n = 203)): 13 (6%) | binding to receptor subtype [2]: bind strongly and preferentially

CN1CCCC1c1cccnc1 (stereo not shown) [nicotine, Nicotine, reference compound]
binding to receptor subtype [2]: bind strongly and preferentially

c1cnc2cc3c(cc2n1)[C@@H]1CNC[C@H]3C1 [Chantix ®, varenicline]
Drug-placebo difference in quit rate ([3]; 4 weeks off treatment (EAGLES)): 20.7% | OR, quit rate versus placebo ([3]; 4 weeks off treatment (EAGLES)): 3.5 | Quit Rate at End of Treatment ([3]; 12 weeks (EAGLES)): 38.0% | CAR weeks 9-24 % (95% CI) ([3]; Region Non-U.S.): 27.9 (25.2-30.8) % | Versus placebo OR (95% CI), CAR weeks 9-24 ([3]; Region Non-U.S.): 2.80 (2.20-3.55) | Versus placebo OR (95% CI), CAR weeks 9-24 ([3]; Region U.S.): 2.66 (1.99-3.55) | CAR weeks 9-24 % (95% CI) ([3]; Region U.S., listed as Chantix®): 16% | CAR weeks 9-24 % (95% CI) ([3]; Region U.S., listed as Varenicline): 16.1 (14.0-18.4) % | overall quit rate at 24 weeks ([3]; all regions (EAGLES)): 22% | Drug-placebo difference in quit rate [3, 8]: 24.3% | OR, quit rate versus placebo [3, 8]: 4.0 | Quit Rate at 4 Weeks Off Treatment ([3]; sustained quit (EAGLES)): 33.2% | Quit Rate at 4 Weeks Treatment ([4]; 4 weeks (ONCKEN)): 37.7% | Drug-placebo difference in quit rate ([4]; 4 weeks treatment (ONCKEN)): 21.4% | OR, quit rate versus placebo ([4]; 4 weeks treatment (ONCKEN)): 3.1 | Abnormal dreams [5]: 12.5% | Headache [5]: 12.7% | Insomnia [5]: 14.2% | Nausea [5]: 27.8% | Serious AEs [5]: 3.3%
